# In patent US20080081075A1, “Multifunctional mixed micelle of graft and block copolymers and preparation thereof” (National Tsing Hua University, priority 2006, published 2008):
# Legend:
# [1] = tested on: HeLa cells; test: Cytotoxicity evaluation, MTT assay; type: cell-based; conditions: 48 h
# Description: The cytotoxicity of each sample was determined by measuring the inhibition of cell growth using a tetrazolium dye (MTT) assay. […] HeLa cells (5×10^3 cell/mL) harvested in a logarithmic growth phase were seeded on 96 wells in Dulbecco's modified Eagle's medium (DMEM) with 10% fetal bovine serum (FBS) in a humidified atmosphere of 5% CO2 at 37° C. After the HeLa cells had been incubated in a logarithmic growth phase, samples with various concentrations of Dox were added for 48 h of co-culturing. At the end of the experiment, the MTT assay was conducted and the percentage of cell viability was calculated. Additionally, material cytotoxicities were measured using HeLa cells (5×10^3 cell/mL). The experimental process was identical to that described above.
# HeLa cells (5×10^3 cell/ml) were used to study the cytotoxicity of free Dox and Dox-loaded mixed micelle by measuring the inhibition of cell growth using a tetrazolium dye (MTT) assay.
# The Dox-loaded multifunctional micelles and free Dox were tested for in vitro cytotoxicity using a tetrazolium dye (MTT) method. The MTT-based cytotoxic activities of the Dox-loaded multifunctional micelles and free DOX were compared after 24 h and 72 h incubation with HeLa cells.
# [2] = tested on: HepG2 (human hepatocellular carcinoma) cells; test: Internalization evaluation by confocal laser scanning microscopy with LysoTracker; type: cell-based; conditions: Dox ca. 10 μg/mL
# Description: Internalization Evaluation. Accumulated Dox in HepG2 cells was localized using a Carl Zeiss LSM5 PASCAL confocal laser scanning microscope (CLSM). The […] cells were seeded on coverslides for 24 h and then treated with free Dox or Dox-loaded mixed micelles. Dox-loaded mixed micelles were washed with PBS twice to remove untrapped Dox before use. The concentration of Dox was ca. 10 μg/mL. After an interval, the cells were washed twice with PBS; then, the LysoTracker was added in a culture medium without FBS. After 30 min of incubation, the cells were washed with PBS and mounted on a slide with 4 wt % paraformaldehyde for CLSM observation. Fluorescence observation was carried out with a confocal microscope at 488 nm for excitation and an LP (long-pass) filter of 590 nm for Dox detection. […]
# Confocal laser scanning microscopy (CLSM) was used to observe the intracellular drug release of mixed micelles. Confocal images were taken to observe the time-dependent fluorescence intensity of LysoTracker and Dox after mixed micelles were incubated with HepG2 (human hepatocellular carcinoma) cells. The red fluorescence from Dox and the green fluorescence from LysoTracker were detected in the intracellular compartment. […] Fluorescence from LysoTracker occurred in both the nucleus and cytoplasm because these are acidified by doxorubicin hydrochloride. […]
smiles,measurement,setting,value
"COc1cccc2c1C(=O)c1c(O)c3c(c(O)c1C2=O)C[C@@](O)(C(=O)CO)C[C@@H]3O[C@H]1C[C@H](N)[C@H](O)[C@H](C)O1 [free Dox, doxorubicin]",activity compared with Dox-loaded mixed micelles and Dox-loaded Graft I micelles,[1],more potent activity
same,localization of Dox fluorescence,[2]; 1 h incubation,concentrated in the nucleus
same,localization of Dox fluorescence,[2]; 8 h incubation,concentrated in the nucleus
